Results: patent US8993589B2, “Imidazopyridine derivatives which inhibit the secretion of gastric acid” (priority 2008, dated 2015)

Tested on: acid secretion in female rats
Assay: Inhibiting effect on acid secretion in female rats
Format: in vivo, rat (Sprague-Dawley
Conditions: rats administered 1 μmol/kg
Method: Inhibiting Effect on Acid Secretion in Female Rats
Female rats of the Sprague-Dawley strain were used. They were equipped with cannulated fistulae in the stomach (lumen) and the upper part of the duodenum, for collection of gastric secretions and administration of test substances, respectively. A recovery period of 14 days after surgery was allowed before testing commenced.
Before secretory tests, the animals were deprived of food but not water for 20 h. The stomach was repeatedly washed through the gastric cannula with tap water (+37° C.), and 6 ml Ringer-Glucose given subcutaneously. […] Gastric juice samples were titrated to pH 7.0 with NaOH, 0.1M, and acid output calculated as the product of titrant volume and concentration.
Further calculations were based on group mean responses from 4-6 rats. In the case of administration during stimulation, the acid output during the periods after administration of test substance or vehicle were expressed as fractional responses, setting the acid output in the 30-min period preceding administration to 1.0. Percentage inhibition was calculated from the fractional responses elicited by test compound and vehicle. In the case of administration before stimulation, percentage inhibition was calculated directly from acid output recorded after test compound and vehicle. […]

SMILES	maximal inhibition of acid secretion
Cc1cccc(C)c1CNc1cc(C(=O)NCCOC(=O)CCCC(=O)O)cn2c(C)c(C)nc12 [Example 1, 5-{2-[({8-[(2,6-dimethylbenzyl)amino]-2,3-dimethylimidazo[1,2-a]pyridin-6-yl}carbonyl)amino]ethoxy}-5-oxopentanoic acid]	100%
Cc1cccc(C)c1CNc1cc(C(=O)NCCOC(=O)CCC(=O)O)cn2c(C)c(C)nc12 [Example 2, 4-{2-[({8-[(2,6-dimethylbenzyl)amino]-2,3-dimethylimidazo[1,2-a]pyridin-6-yl}carbonyl)amino]ethoxy}-4-oxobutanoic acid]	70%
